Patent publication US20210137858A1, “COMBINATION FORMULATION CONTAINING COLCHICINE FOR TREATMENT OR ENHANCING THE THERAPY OF LIVER DISEASE” (priority 2019, published 2021)

Assays:
Assay type in all cases: in vivo, Wistar Rat
[1] = system: liver damage caused by CCl4; assay: Blood and serum levels (albumin, ALP, ALT, AST, total protein) in CCl4-administered rats (Examples 3, 4-1 to 4-3)
Description: (§1) Male Wistar Rat [about 150 g, 4 to 5-week old]
(§2) An administration plan of carbon tetrachloride (CCl4), silymarin, colchicine, and biphenyldimethyl dicarboxylate (DDB) used in this experiment is as follows:
(§3) (1) Carbon tetrachloride: Intraperitoneal administration of 0.4 g/kg·bw, administered 3 times per week for 10 weeks
(§4) (2) Silymarin: Oral administration of 10, 30, 50 mg/kg·bw, administered once a day for 10 weeks
(§5) (3) Colchicine: Oral administration of 10 μg/kg·bw, administered once a day for 10 weeks
(§6) (4) Biphenyldimethyl dicarboxylate (DDB): Oral administration of 10, 20, 25 mg/kg·bw, administered once a day for 10 weeks
(§7) (5) UDCA: Oral administration of 30 mg/kg·bw, administered once a day for 10 weeks
(§8) For this experiment, each group was classified as follows, and one group was used by 12 rats.
(§9) (4) CCl4+DDB [25 mg/kg] administered group
(§10) (5) CCl4+Colchicine [10 μg/kg]+DDB [25 mg/kg] administered group
(§11) (6) CCl4+Colchicine [10 μg/kg]+DDB [20 mg/kg] administered group
(§12) (7) CCl4+Colchicine [10 μg/kg]+DDB [10 mg/kg] administered group
(§13) (8) CCl4+Silymarin [50 mg/kg] administered group
(§14) (9) CCl4+Colchicine [10 μg/kg]+Silymarin [50 mg/kg] administered group
(§15) (10) CCl4+Colchicine [10 μg/kg]+Silymarin [30 mg/kg] administered group
(§16) (11) CCl4+Colchicine [10 μg/kg]+Silymarin [10 mg/kg] administered group
(12) CCl4+Colchicine [10 μg/kg]+UDCA [30 mg/kg] administered group
Serum items were measured at 4 weeks and 10 weeks, and histological items were measured at 10 weeks.
(1) Serum enzyme items: Albumin, total protein concentration, ALT, AST, ALP, etc.
(§17) At this time, the dose of colchicine administered was all the same at 10 μg/kg.
as §17, §17

[2] = system: fibrin accumulation in the liver (CCl4); conditions: DDB 25 mg/kg alone; CCl4 0.4 g/kg rats
Description: as §1, §2, §3, §4, §5, §6, §7, §8, §9, §10, §11, §12, §13, §14, §15, §16
(12) CCl4+Colchicine [10 μg/kg]+UDCA [30 mg/kg] administered group […]

[3] = system: liver tissue of CCl4-administered rats; assay: Liver histopathological examination (H&E staining) (Example 4-5); parameters: key to Fatty necrosis / Ballooning degeneration / Fatty change / Fibrosis: 0 point for no disease (NAD); 1 point for mild symptoms; 2 points for moderate symptoms; 3 points for severe symptoms; conditions: DDB [25 mg] alone, 10 weeks
Description: as §1, §2, §3, §8
The following items were measured to confirm the enhancement of the efficacy for the treatment of liver disease (hepatitis, liver fibrosis, etc.). Serum items were measured at 4 weeks and 10 weeks, and histological items were measured at 10 weeks.
(2) Liver tissue Histology: H&E staining
In each group, when the pathological characteristics for fatty necrosis, ballooning, fatty change, and fibrosis may be identified according to severity of disease, it was evaluated by assigning 0 point for no disease (NAD), 1 point for mild symptoms, 2 points for moderate symptoms, and 3 points for severe symptoms.

liver fibrosis by CCl4 = assay: Hydroxyproline assay, CCl4 liver fibrosis, colchicine dose (Examples 1-2); conditions: for Hydroxyproline: CCl4 0.4 g/kg rats
Description: as §1
An administration plan of carbon tetrachloride (CCl4) and colchicine used in this experiment is as follows:
(1) Carbon tetrachloride: Intraperitoneal administration of 0.4 g/kg·bw, administered 3 times per week for 10 weeks • (2) Colchicine: Oral administration of 10, 50, 100 μg/kg·bw, once daily for 10 weeks
as §8
(3) CCl4-administered group [0.4 g/kg]
(4) CCl4+Colchicine [10 μg/kg]
(5) CCl4+Colchicine [50 μg/kg]
(6) CCl4+Colchicine [100 μg/kg]
The following items were measured to confirm the enhancement of the efficacy for treating liver fibrosis. Fibrosis index items were measured at 10 weeks.
(1) Fibrosis index item: hydroxyproline
Hydroxyproline assay was performed for each group to confirm the levels of […] accumulation in the liver.

[4] = DDB 25 mg/kg alone, CCl4 rats, serum

SMILES	ALP [1, 4] [U/L]	ALT [1, 4] [U/L]	AST [1, 4] [U/L]	Albumin [1, 4] [g/dL]	Total protein [1, 4] [g/dL]	ALP (Alkaline phosphatase) level, in words ([1]; vs CCl4 administration, Tables 2 and 4)	Albumin level, in words ([1]; vs level reduced by CCl4, Tables 2-4)	Total protein, in words ([1]; vs value reduced by CCl4, Tables 2-4)	Hydroxyproline [2]	Ballooning degeneration [3]	Fatty change [3]	Fatty necrosis [3]	Fibrosis [3]	Total Score [3]	Hydroxyproline (liver fibrosis by CCl4; colchicine 10 μg/kg oral once daily 10 weeks)	Hydroxyproline (liver fibrosis by CCl4; colchicine 50 μg/kg oral once daily 10 weeks)	Hydroxyproline (liver fibrosis by CCl4; colchicine 100 μg/kg oral once daily 10 weeks)	fibrin (hydroxyproline assay), in words (liver fibrosis by CCl4; colchicine-administered group vs CCl4, Table 1)
COC(=O)c1cc(OC)c2c(c1-c1c(C(=O)OC)cc(OC)c3c1OCO3)OCO2 [DDB, biphenyldimethyl dicarboxylate]	1428.90 ± 681.53	1543.09 ± 408.03	1642.24 ± 764.93	2.13 ± 0.09	5.35 ± 0.28	the level was increased	tended to be recovered	tended to be recovered	317.74 ± 9.24 μg/g of liver	3	1	1	2	7	–	–	–	–
COc1cc2c(c(OC)c1OC)-c1ccc(OC)c(=O)cc1[C@@H](NC(C)=O)CC2 [Colchicine, colchicine]	–	–	–	–	–	–	–	–	–	–	–	–	–	–	320.12 ± 13.32 μg/g of liver	313.33 ± 12.50 μg/g of liver	302.25 ± 10.25 μg/g of liver	significant reduction effect of fibrin
